In patent US12404260B2, “Pyridine rings containing derivatives as MALT1 inhibitors” (Janssen Pharmaceutica NV, priority 2019, dated 2025):

Target: T1, full-length MALT1 protein (Strep-MALT1(1-824)-His) (Homo sapiens, UniProt Q9UDY8)
T1 construct: full-length MALT1 protein (Strep-MALT1(1-824)-His) purified from baculovirus-infected insect cells; Strep (N); His (C); made in house; host or cells: baculovirus-infected insect cells
T1 sequence (Q9UDY8 1-824): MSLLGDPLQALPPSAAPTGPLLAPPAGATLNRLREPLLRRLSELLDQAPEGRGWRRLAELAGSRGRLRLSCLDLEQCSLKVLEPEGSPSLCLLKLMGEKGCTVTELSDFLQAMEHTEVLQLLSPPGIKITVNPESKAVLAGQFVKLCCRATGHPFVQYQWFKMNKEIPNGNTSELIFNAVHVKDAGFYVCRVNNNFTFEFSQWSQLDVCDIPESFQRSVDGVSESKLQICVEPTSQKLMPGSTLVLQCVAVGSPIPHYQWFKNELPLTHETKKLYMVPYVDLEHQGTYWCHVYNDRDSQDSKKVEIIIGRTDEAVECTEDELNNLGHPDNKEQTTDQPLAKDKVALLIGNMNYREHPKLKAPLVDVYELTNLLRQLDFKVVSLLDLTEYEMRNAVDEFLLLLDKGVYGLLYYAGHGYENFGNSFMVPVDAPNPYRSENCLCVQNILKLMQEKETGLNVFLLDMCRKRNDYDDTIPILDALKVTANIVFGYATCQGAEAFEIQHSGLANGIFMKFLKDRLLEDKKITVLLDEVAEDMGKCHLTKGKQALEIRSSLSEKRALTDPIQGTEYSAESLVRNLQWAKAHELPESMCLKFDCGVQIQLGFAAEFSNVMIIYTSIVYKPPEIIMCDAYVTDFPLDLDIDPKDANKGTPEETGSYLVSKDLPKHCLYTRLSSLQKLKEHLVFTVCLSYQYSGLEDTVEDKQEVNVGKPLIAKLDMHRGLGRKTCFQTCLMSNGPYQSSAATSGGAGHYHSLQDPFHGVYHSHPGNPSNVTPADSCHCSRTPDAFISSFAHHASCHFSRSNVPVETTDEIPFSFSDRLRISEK
Assay: MALT1 Biochemical Protease Assay
Conditions: 10 nM FL MALT1, 200 μM Ac-LRSR-AMC, 50 min pre-incubation, 4 h at RT; read-out: MALT1_Biochemical activity (Ac-LRSR-amc) IC50
Method: MALT1 protease activity was assessed in an in vitro assay using a tetrapeptide as substrate and full-length MALT1 protein (Strep-MALT1(1-824)-His) purified from baculovirus-infected insect cells. The tetrapeptide LRSR is coupled to AMC (7-amino-4-methylcoumarin) and provides a quenched, fluorescent substrate for the MALT1 protease (SM Biochemicals). Cleavage of AMC from the Arginine residue results in an increase in coumarin fluorescence measured at 460 nm (excitation 355 nm). The final assay buffer consisted of 10 nM FL MALT1 protein, 200 μM Ac-LRSR-AMC, 50 mM Tris pH 7.5, 0.6 M Citrate, 1 mM DTT, 1 mM EDTA, 0.05% BSA and 1.5% DMSO. Test compounds were spotted at 50 nL in 100% DMSO per well of a black 384-Proxiplate (Perkin Elmer). Test compound concentrations ranged from 30 μM to 0.5 nM using 11 dilution steps (1:3). Background signal was measured from control wells containing assay buffer without enzyme which functions as low control (LC). High control (HC) values were generated using the reaction with enzyme but no compound treatment. Compounds were pre-incubated with MALT1 enzyme for 50 minutes at RT. Substrate was added subsequently and fluorescence was measured in Labsystems fluoroskan at excitation 355 nm and emission 460 nm to determine time 0. The reaction was subsequently incubated for 4 h at RT and fluorescence was measured. For IC50 calculations, timepoint 0 was subtracted from the 4 h timepoint to correct for any potential autofluorescence of the compounds. The enzyme reaction was linear during the 4 h incubation period. Characterization of the substrate Ac-LRSR-AMC determined the Michaelis constant KM at 200 μM.
IC50 values were calculated using the following formula (Z prime should be >0.5): […]
A best-fit curve was fitted by a minimum sum of squares method to the plot of % Controlmin vs. compound concentration. From this an IC50 value (inhibitory concentration causing 50% inhibition) can be obtained. An estimate of the slope of the plot in terms of the Hill coefficient was also obtained.
Used in “Lexis Dose Response Curve Fitting” Version 1.0.

First: COC(C)c1c(NC(=O)Nc2cnc(-n3nccn3)c(Cl)c2)cncc1OC1CC1 (racemic) [Co. 13]
Second: COC(C)c1c(NC(=O)Nc2cnc(-n3nccn3)c(Cl)c2)cncc1OC1COC1 (centres unmarked) [Co. 12]
The IC50 of the first is 2-fold lower: 850 nM for the first, 1700 nM for the second. The first is the more potent here.

`COC(C)c1c(F)cncc1NC(=O)Nc1cnc(-n2nccn2)c(Cl)c1` (racemic) [Co. 21] and `COC(C)c1c(Br)cncc1NC(=O)Nc1cnc(-n2nccn2)c(Cl)c1` (single isomer, unassigned) [Co. 19] are within 1.5-fold of each other in IC50: 2630 nM for the first, 2750 nM for the second.

`COC(C)c1c(NC(=O)Nc2cnc(-n3nccn3)c(Cl)c2)cncc1C(C)C` (racemic) [Co. 30] and `CO[C@@H](C)c1c(NC(=O)Nc2cnc(-n3nccn3)c(Cl)c2)cncc1OC(C)C` [Co. 10] are within 1.5-fold of each other in IC50: 2140 nM for the first, 3020 nM for the second.

First: COC(C)c1c(NC(=O)Nc2cnc(-n3nccn3)c(Cl)c2)cncc1C1COC1 (racemic) [Co. 31]
Second: CO[C@@H](C)c1c(O)cncc1NC(=O)Nc1cnc(-n2nccn2)c(Cl)c1 [Co. 5]
The IC50 of the first is 2.1-fold lower: 1230 nM for the first, 2630 nM for the second. The first is the more potent here.

Compared with `CNc1cncc(NC(=O)Nc2cnc(-n3nccn3)c(Cl)c2)c1C(C)OC` (racemic) [Co. 33], `COC(C)c1c(NC(=O)Nc2cnc(-n3nccn3)c(Cl)c2)cncc1NC(C)C` (centres unmarked) [Co. 32] is 1.5-fold higher in IC50: 1820 nM for the first, 2820 nM for the second. The first is the more potent here.

First: COC(C)c1c(Br)cnc(C)c1NC(=O)Nc1cnc(-n2nccn2)c(Cl)c1 (racemic) [Co. 50]
Second: COC(C)c1c(Br)cnc(C2CC2)c1NC(=O)Nc1cnc(-n2nccn2)c(Cl)c1 (centres unmarked) [Co. 48]
The IC50 of the first is lower: 7410 nM for the first, > 30200 nM for the second. The first is the more potent here.

Compared with `CO[C@@H](C)c1c(NC(=O)Nc2cnc(OC(F)F)c(Cl)c2)cnc(N)c1Cl` (single isomer, unassigned) [Co. 135], `COC(C)c1c(NC(=O)Nc2cnc(-n3nccn3)c(Cl)c2)cnc(C2CC2)c1Br` (centres unmarked) [Co. 47] is 4.4-fold higher in IC50: 2000 nM for the first, 8710 nM for the second. The first is the more potent here.

Going from `CO[C@@H](C)c1c(NC(=O)Nc2cnc(-n3nccn3)c(Cl)c2)cncc1OCc1ccccc1` [Co. 2] to `COC(C)c1c(NC(=O)Nc2cnc(-n3nccn3)c(Cl)c2)cncc1OCc1ccccc1` (centres unmarked) [Co. 3], the IC50 rises from 2400 nM to > 30200 nM.

Compared with `COC(C)c1c(O)cncc1NC(=O)Nc1cnc(-n2nccn2)c(Cl)c1` (centres unmarked) [Co. 6], `COc1cncc(NC(=O)Nc2cnc(-n3nccn3)c(Cl)c2)c1C(C)OC` (centres unmarked) [Co. 7] is 140-fold lower in IC50: 24000 nM for the first, 170 nM for the second. The second is the more potent here.

`COC(C)c1c(NC(=O)Nc2cnc(-n3nccn3)c(Cl)c2)cncc1OCC1CC1` (centres unmarked) [Co. 11] and `COC(C)c1c(NC(=O)Nc2cnc(-n3nccn3)c(Cl)c2)cncc1OCC(N)=O` (centres unmarked) [Co. 16] are within 1.5-fold of each other in IC50: 1740 nM for the first, 1410 nM for the second.
